Here are results for 6 compounds from US3969363A, “Derivatives of 1-phenoxy-3-amino-propan-2-ol and process for their production” (Cassella Farbwerke Mainkur Aktiengesellschaft, priority 1973, dated 1976).

Molecules are shown by their SMILES.

Assay [1] addresses T1, β1-receptors of the heart (Canis lupus familiaris, UniProt P79148).
T1 construct: from tissue; host or cells: heart (left ventricle) of the living anaesthetised mongrel dog
Briefly: Blocking of Isoproterenol-induced increase of maximum rate of left-ventricular pressure rise (Dp/dt max.) in anaesthetised dogs (β1-receptor inhibition). It is filed as in vivo, mongrel dogs. Conditions: for ED50: dog, intravenous, 50 % inhibition of reaction to Isoproterenol 0.5 gamma/kg i.v., anaesthetised dogs, read-out: β1-receptor inhibition ED 50; for Relative β1-receptor inhibition (reference substance = 100): relative ED 50, Practolol = 100, lower = more active; for Quotient: ED 50 β2-receptor inhibition / ED 50 β1-receptor inhibition: measure of cardioselective action, higher = better; for Quotient, on basis of reference substance = 1: relative cardioselectivity factor, Practolol = 1. The method, then: (§1) The blocking action of the compounds according to the invention on the β1-receptors of the heart and on the β2-receptors of the cardiovascular system was investigated as follows: the blood pressure in the left-hand ventricle was measured on mongrel dogs of both sexes under anaesthesia by Chloralose-urethane-morphine and the pressure signal was continuously differentiated by means of an analogue computer (BRUSH Instruments, Cleveland/Ohio) and, inter alia, the rate of pressure increase (Dp/dt) was recorded. In addition, the perfusion of a femoral artery was measured by means of an electromagnetic flow meter (Model […] of Messrs. Statham) and the perfusion was recorded in ml/minutes. […] DUNLOP and […]: Selective blockade of adrenoceptive beta-receptors in the heart. Brit. J. Pharmac. Chemother. (1968) 32, 201-218). The substances to be tested for β-receptor blocking were administered intravenously in increasing dosages to the animals, which had been anaesthetised and stimulated by means of Isoproterenol, and the quantity of substance was determined at which a 50 % inhibition of the two reactions caused by Isoproterenol occurred (ED50). […] The higher this quotient is, the better the cardioselective action.

The target in assay [2] is T2, β2-receptors of the cardiovascular system (Canis lupus familiaris, UniProt P54833).
T2 construct: from tissue; host or cells: femoral vascular bed of the living anaesthetised mongrel dog
T2 sequence (P54833 whole entry): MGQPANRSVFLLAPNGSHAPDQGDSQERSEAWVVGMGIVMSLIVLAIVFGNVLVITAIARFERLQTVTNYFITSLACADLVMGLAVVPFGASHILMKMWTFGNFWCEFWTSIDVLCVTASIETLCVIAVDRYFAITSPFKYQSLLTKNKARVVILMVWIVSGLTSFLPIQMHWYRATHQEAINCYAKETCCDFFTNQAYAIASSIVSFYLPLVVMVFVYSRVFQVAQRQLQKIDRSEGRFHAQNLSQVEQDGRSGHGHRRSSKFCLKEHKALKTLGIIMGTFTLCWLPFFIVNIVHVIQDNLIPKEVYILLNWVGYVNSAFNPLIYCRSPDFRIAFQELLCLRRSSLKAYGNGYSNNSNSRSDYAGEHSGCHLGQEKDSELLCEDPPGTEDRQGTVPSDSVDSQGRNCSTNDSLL
Briefly: Blocking of Isoproterenol-induced alteration of peripheral perfusion of the femoral artery in anaesthetised dogs (β2-receptor inhibition). In kind it is in vivo, mongrel dogs. The settings on record: for ED50: dog, intravenous, 50 % inhibition of reaction to Isoproterenol 0.05 gamma/kg intra-arterial, anaesthetised dogs, read-out: β2-receptor inhibition ED 50; for Relative β2-receptor inhibition (reference substance = 100): relative ED 50, Practolol = 100. The method, then: as §1

T1 sequence (P79148 whole entry): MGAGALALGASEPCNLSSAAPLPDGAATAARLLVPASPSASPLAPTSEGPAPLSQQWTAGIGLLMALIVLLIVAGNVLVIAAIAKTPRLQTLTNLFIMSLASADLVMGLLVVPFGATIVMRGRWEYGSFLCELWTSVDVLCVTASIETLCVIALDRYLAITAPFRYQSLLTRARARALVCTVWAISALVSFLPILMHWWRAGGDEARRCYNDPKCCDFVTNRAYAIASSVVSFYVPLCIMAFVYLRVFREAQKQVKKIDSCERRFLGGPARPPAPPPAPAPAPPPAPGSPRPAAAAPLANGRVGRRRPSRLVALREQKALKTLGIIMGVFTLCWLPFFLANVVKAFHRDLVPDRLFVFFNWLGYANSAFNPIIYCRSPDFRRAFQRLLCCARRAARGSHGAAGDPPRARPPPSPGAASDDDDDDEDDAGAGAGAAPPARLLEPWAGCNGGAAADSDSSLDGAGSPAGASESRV

For `Cc1ccc(C(O)CC(C)NCC(O)COc2ccc(Br)cc2)cn1` (centres unmarked) [1-(4-Bromo-phenoxy)-3-(1-[6-methyl-pyridyl-3]-1-hydroxy-butyl-(3)-amino)-propan-2-ol], in assay [1], the ED50 stood at 0.074 mg/kg and the “Relative β1-receptor inhibition (reference substance = 100)” value (“Relative β1-receptor inhibition” for short) came out at 31.1.

As to `CCCCCOc1ccc(OCC(O)CNC(C)CC(O)c2ccc(C)nc2)cc1` (centres unmarked) [1-(4-n-Pentyloxy-phenoxy)-3-(1-[6-methyl-pyridyl-3]-1-hydroxy-butyl-(3)-amino)-propan-2-ol], in assay [1], the ED50 is 0.057 mg/kg; the “Quotient: ED 50 β2-receptor inhibition / ED 50 β1-receptor inhibition” value is 136; the “Relative β1-receptor inhibition” value is 29.9; the “Quotient, on basis of reference substance = 1” value (“Quotient, on basis” for short) turned out to be 1.2. In assay [2], the ED50 amounted to 7.74 mg/kg and the “Relative β2-receptor inhibition (reference substance = 100)” value (“Relative β2-receptor inhibition” for short) came to 29.2.

In the case of `CCCOc1ccc(OCC(O)CNC(C)CC(O)c2ccc(C)nc2)cc1` (centres unmarked) [1-(4-n-Propoxy-phenoxy)-3-(1-[6-methyl-pyridyl-3]-1-hydroxy-butyl-(3)-amino)-propan-2-ol], in assay [1], the ED50 came to 0.011 mg/kg; the “Quotient: ED 50 β2-receptor inhibition / ED 50 β1-receptor inhibition” value came to 171; the “Relative β1-receptor inhibition” value was determined as 4.6; the “Quotient, on basis” value amounted to 1.5. Also, in assay [2], the ED50 was determined as 1.8 mg/kg and the “Relative β2-receptor inhibition” value is 6.8.

As to `CCCCOc1ccc(OCC(O)CNC(C)CC(O)c2ccc(C)nc2)cc1` (centres unmarked) [1-(4n-Butoxy-phenoxy)-3-(1-[6-methyl-pyridyl-3]-1-hydroxy-butyl-(3)-amino)-propan-2-ol], in assay [1], the ED50 worked out at 0.067 mg/kg; the “Quotient: ED 50 β2-receptor inhibition / ED 50 β1-receptor inhibition” value is 487; the “Relative β1-receptor inhibition” value turned out to be 28.2; the “Quotient, on basis” value is 4.4. In addition, in assay [2], the ED50 amounted to 32.7 mg/kg and the “Relative β2-receptor inhibition” value worked out at 123.2.

Consider `CC(=O)Nc1ccc(OCC(O)CNC(C)CC(O)c2ccc(C)nc2)cc1` (centres unmarked) [1-(p-Acetamino-phenoxy)-3-(1-[6-methyl-pyridyl-3]-1-hydroxy-butyl-(3)-amino)-propan-2-ol], for which, in assay [1], the ED50 is 0.012 mg/kg; the “Quotient: ED 50 β2-receptor inhibition / ED 50 β1-receptor inhibition” value is 165; the “Relative β1-receptor inhibition” value was found to be 5.04; the “Quotient, on basis” value was found to be 1.5. Also, in assay [2], the ED50 is 1.99 mg/kg and the “Relative β2-receptor inhibition” value worked out at 7.5.

As to `CC(=O)Nc1ccc(OCC(O)CNC(C)C)cc1` (centres unmarked) [4-(2-Hydroxy-3-isopropylamino-propoxy)-acetanilide, reference compound], in assay [1], the ED50 stood at 0.238 mg/kg; the “Quotient: ED 50 β2-receptor inhibition / ED 50 β1-receptor inhibition” value turned out to be 110; the “Relative β1-receptor inhibition” value worked out at 100; the “Quotient, on basis” value is reported as 1. In assay [2], the ED50 was 26.5 mg/kg and the “Relative β2-receptor inhibition” value is listed as 100.
